Laboratory results from patent publication US20070020329A1, “Methods of formulating linezolid” (priority 2005, published 2007).

Experiment: Polymorphic stability of solid linezolid Form IV, alone and in contact with solvents
Format: physicochemical
From the text: As a consequence, pharmaceutical compositions comprising linezolid Form IV substantially free of linezolid Form II are difficult to prepare.

conversion of Form IV to Form II (in words) (contacted with solvents, in particular ethanol): readily transforms to linezolid Form II
conversion of solid Form IV to Form II (in words) (solid, at least 3 months at temperatures between 25 and 40° C.): does not convert to linezolid Form II
SMILES: CC(=O)NC[C@H]1CN(c2ccc(N3CCOCC3)c(F)c2)C(=O)O1 [linezolid Form IV, N-[[(5S)-3-[3-fluoro-4-(4-morpholinyl)phenyl]-2-oxo-5-oxazolidinyl]methyl]acetamide]
